Patent publication US10202361B2, “Pyridazinones as herbicides” (E I DU PONT DE NEMOURS AND COMPANY, priority 2014, dated 2019)

How the values were obtained:
Test in all cases: Test D pre-/postemergence controlled growth environment herbicide test
Type in all cases: in vivo
Conditions in all cases: scale 0 to 100
[1] = test system: barley, spring (spring barley, Hordeum vulgare)
Outline: (§1)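 Ratings come from visual comparison with untreated plants on a 0–100 scale, 0 meaning no effect. Test chemicals in surfactant-containing solvent were applied either to soil at planting (silt loam) or over foliage of 2–18 cm plants in peat-based medium, then held 14–21 d in a controlled growth environment.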

[2] = test system: blackgrass (Alopecurus myosuroides)
Outline: as §1

[3] = test system: bluegrass (annual bluegrass, Poa annua)
Outline: as §1

[4] = test system: canarygrass (Phalaris minor)
Outline: as §1

[5] = test system: chamomile (scentless chamomile, Matricaria inodora)
Outline: as §1

[6] = test system: chickweed (common chickweed, Stellaria media)
Outline: as §1

[7] = test system: field violet (Viola arvensis)
Outline: as §1

[8] = test system: lambsquarters (Chenopodium album)
Outline: as §1

[9] = test system: oilseed rape (Brassica napus)
Outline: as §1

[10] = test system: ryegrass, Italian (Italian ryegrass, Lolium multiflorum)
Outline: as §1

[11] = test system: wheat, spring (spring wheat, Triticum aestivum)
Outline: as §1

Cc1cc(=O)n(-c2ccc(F)cc2)nc1Cc1ccnc(C(F)(F)F)c1 [Compound 1, 2-(4-fluorophenyl)-5-methyl-6-[[2-(trifluoromethyl)-4-pyridinyl]methyl]-3(2H)-pyridazinone]
Plant response rating ([1]; Postemergence, 31 g ai/ha): 0 | Plant response rating ([1]; Postemergence, 62 g ai/ha): 0 | Plant response rating ([1]; Postemergence, 125 g ai/ha): 5 | Plant response rating ([1]; Postemergence, 250 g ai/ha): 10 | Plant response rating ([1]; Postemergence, 500 g ai/ha): 10 | Plant response rating ([1]; Preemergence, 31 g ai/ha): 0 | Plant response rating ([1]; Preemergence, 62 g ai/ha): 5 | Plant response rating ([1]; Preemergence, 125 g ai/ha): 5 | Plant response rating ([1]; Preemergence, 250 g ai/ha): 30 | Plant response rating ([1]; Preemergence, 500 g ai/ha): 70 | Plant response rating ([2]; Postemergence, 31 g ai/ha): 0 | Plant response rating ([2]; Postemergence, 62 g ai/ha): 10 | Plant response rating ([2]; Postemergence, 125 g ai/ha): 10 | Plant response rating ([2]; Postemergence, 250 g ai/ha): 20 | Plant response rating ([2]; Postemergence, 500 g ai/ha): 20 | Plant response rating ([2]; Preemergence, 31 g ai/ha): 0 | Plant response rating ([2]; Preemergence, 62 g ai/ha): 0 | Plant response rating ([2]; Preemergence, 125 g ai/ha): 20 | Plant response rating ([2]; Preemergence, 250 g ai/ha): 40 | Plant response rating ([2]; Preemergence, 500 g ai/ha): 75 | Plant response rating ([3]; Postemergence, 31 g ai/ha): 5 | Plant response rating ([3]; Postemergence, 62 g ai/ha): 5 | Plant response rating ([3]; Postemergence, 125 g ai/ha): 10 | Plant response rating ([3]; Postemergence, 250 g ai/ha): 10 | Plant response rating ([3]; Postemergence, 500 g ai/ha): 10 | Plant response rating ([3]; Preemergence, 31 g ai/ha): 0 | Plant response rating ([3]; Preemergence, 62 g ai/ha): 0 | Plant response rating ([3]; Preemergence, 125 g ai/ha): 0 | Plant response rating ([3]; Preemergence, 250 g ai/ha): 15 | Plant response rating ([3]; Preemergence, 500 g ai/ha): 45 | Plant response rating ([4]; Postemergence, 31 g ai/ha): 5 | Plant response rating ([4]; Postemergence, 62 g ai/ha): 10 | Plant response rating ([4]; Postemergence, 125 g ai/ha): 15 | Plant response rating ([4]; Postemergence, 250 g ai/ha): 20 | Plant response rating ([4]; Postemergence, 500 g ai/ha): 20 | Plant response rating ([4]; Preemergence, 31 g ai/ha): 0 | Plant response rating ([4]; Preemergence, 62 g ai/ha): 0 | Plant response rating ([4]; Preemergence, 125 g ai/ha): 5 | Plant response rating ([4]; Preemergence, 250 g ai/ha): 15 | Plant response rating ([4]; Preemergence, 500 g ai/ha): 30 | Plant response rating ([5]; Postemergence, 31 g ai/ha): 30 | Plant response rating ([5]; Postemergence, 62 g ai/ha): 30 | Plant response rating ([5]; Postemergence, 125 g ai/ha): 30 | Plant response rating ([5]; Postemergence, 250 g ai/ha): 60 | Plant response rating ([5]; Postemergence, 500 g ai/ha): 50 | Plant response rating ([5]; Preemergence, 125 g ai/ha): 70 | Plant response rating ([5]; Preemergence, 250 g ai/ha): 90 | Plant response rating ([5]; Preemergence, 500 g ai/ha): 100 | Plant response rating ([6]; Postemergence, 31 g ai/ha): 30 | Plant response rating ([6]; Postemergence, 62 g ai/ha): 30 | Plant response rating ([6]; Postemergence, 125 g ai/ha): 50 | Plant response rating ([6]; Postemergence, 250 g ai/ha): 50 | Plant response rating ([6]; Postemergence, 500 g ai/ha): 60 | Plant response rating ([6]; Preemergence, 31 g ai/ha): 100 | Plant response rating ([6]; Preemergence, 62 g ai/ha): 100 | Plant response rating ([6]; Preemergence, 125 g ai/ha): 100 | Plant response rating ([6]; Preemergence, 250 g ai/ha): 100 | Plant response rating ([6]; Preemergence, 500 g ai/ha): 100 | Plant response rating ([7]; Postemergence, 31 g ai/ha): 20 | Plant response rating ([7]; Postemergence, 62 g ai/ha): 50 | Plant response rating ([7]; Postemergence, 125 g ai/ha): 75 | Plant response rating ([7]; Postemergence, 250 g ai/ha): 80 | Plant response rating ([7]; Postemergence, 500 g ai/ha): 90 | Plant response rating ([7]; Preemergence, 31 g ai/ha): 60 | Plant response rating ([7]; Preemergence, 62 g ai/ha): 80 | Plant response rating ([7]; Preemergence, 125 g ai/ha): 90 | Plant response rating ([7]; Preemergence, 250 g ai/ha): 98 | Plant response rating ([7]; Preemergence, 500 g ai/ha): 100 | Plant response rating ([8]; Postemergence, 31 g ai/ha): 20 | Plant response rating ([8]; Postemergence, 62 g ai/ha): 20 | Plant response rating ([8]; Postemergence, 125 g ai/ha): 40 | Plant response rating ([8]; Postemergence, 250 g ai/ha): 40 | Plant response rating ([8]; Postemergence, 500 g ai/ha): 45 | Plant response rating ([8]; Preemergence, 31 g ai/ha): 0 | Plant response rating ([8]; Preemergence, 62 g ai/ha): 0 | Plant response rating ([8]; Preemergence, 125 g ai/ha): 20 | Plant response rating ([8]; Preemergence, 250 g ai/ha): 90 | Plant response rating ([8]; Preemergence, 500 g ai/ha): 100 | Plant response rating ([9]; Postemergence, 31 g ai/ha): 35 | Plant response rating ([9]; Postemergence, 62 g ai/ha): 40 | Plant response rating ([9]; Postemergence, 125 g ai/ha): 50 | Plant response rating ([9]; Postemergence, 250 g ai/ha): 75 | Plant response rating ([9]; Postemergence, 500 g ai/ha): 80 | Plant response rating ([9]; Preemergence, 31 g ai/ha): 30 | Plant response rating ([9]; Preemergence, 62 g ai/ha): 30 | Plant response rating ([9]; Preemergence, 125 g ai/ha): 40 | Plant response rating ([9]; Preemergence, 250 g ai/ha): 75 | Plant response rating ([9]; Preemergence, 500 g ai/ha): 98 | Plant response rating ([10]; Postemergence, 31 g ai/ha): 0 | Plant response rating ([10]; Postemergence, 62 g ai/ha): 0 | Plant response rating ([10]; Postemergence, 125 g ai/ha): 5 | Plant response rating ([10]; Postemergence, 250 g ai/ha): 10 | Plant response rating ([10]; Postemergence, 500 g ai/ha): 10 | Plant response rating ([10]; Preemergence, 31 g ai/ha): 0 | Plant response rating ([10]; Preemergence, 62 g ai/ha): 0 | Plant response rating ([10]; Preemergence, 125 g ai/ha): 10 | Plant response rating ([10]; Preemergence, 250 g ai/ha): 20 | Plant response rating ([10]; Preemergence, 500 g ai/ha): 60 | Plant response rating ([11]; Postemergence, 31 g ai/ha): 0 | Plant response rating ([11]; Postemergence, 62 g ai/ha): 5 | Plant response rating ([11]; Postemergence, 125 g ai/ha): 5 | Plant response rating ([11]; Postemergence, 250 g ai/ha): 10 | Plant response rating ([11]; Postemergence, 500 g ai/ha): 10 | Plant response rating ([11]; Preemergence, 31 g ai/ha): 0 | Plant response rating ([11]; Preemergence, 62 g ai/ha): 0 | Plant response rating ([11]; Preemergence, 125 g ai/ha): 10 | Plant response rating ([11]; Preemergence, 250 g ai/ha): 15 | Plant response rating ([11]; Preemergence, 500 g ai/ha): 75
